Reference: US20180179256A1 (priority 2015, published 2018)
Entries after “also recorded” stand apart in the source; their conditions may differ.

Columns and labels:
HLA-DR = format: cell-based, human
Normal subject PBMC = format: cell-based, human

Sequence | % Inhibition by HLA-DR blocking Ab (HLA-DR) | Peptide-specific T cell response on blocking HLA-DR (in words) (HLA-DR) | Suppression of T cell response to pool of H7N9 ICS peptides (Normal subject PBMC) | Responses to the pool of IAV peptides (1-4) in presence of peptide (Normal subject PBMC) | Suppression of T cell responses to immunodominant HA peptides from circulating IAV strains (Normal subject PBMC)
AANIIGILHLILWILDRL [H7N9-10] | 68% | only partially inhibited | – | – | –
AVKLYKKLKREMTFHGA [H7N9-9] | 100% | – | did not suppress T cell responses | – | –
DKLYERVKRQLRENAEED [H7N9-8] | 89% | only partially inhibited | – | – | –
IVYWKQWLSLKNLTQ [H7N9-14A] | 100% | – | – | Reduced responses | –
KGILGFVFTLTVPSERGLQ [H7N9-3] | 97% | only partially inhibited | – | – | –
PKYVKSNRLVLATG [IAV-4, reference compound] | 96% | only partially inhibited | – | – | –
PKYVKSTKLRLATG [IAV-1, reference compound] | 100% | – | – | – | –
PRYVKQNTLKLATG [IAV-3, reference compound] | 78% | only partially inhibited | – | – | –
PRYVKQRSLLLATG [H7N9-13] | 100% | – | significantly suppressed T cell response to the pooled peptides; also recorded: significantly decreased | Reduced responses | significantly suppressed T cell response to IAV-3; also recorded: able to suppress responses
PRYVKQSTLKLATG [IAV-2, reference compound] | 73% | only partially inhibited | – | – | –
QITFMQALQLLLEVE [H7N9-12] | 100% | – | – | – | –
QPEWFRNVLSIAPIMFSNK [H7N9-4] | 100% | – | – | – | –
RIDFHWLMLNPNDTVTFS [H7N9-1] | 46% | only partially inhibited | – | – | –
SRKLLLIVQALRDNLEPG [H7N9-11] | increased response | response increased; also recorded: response was absent except when HLA-DR was blocked | – | – | –
WKQWLSLKNTLTQGSL [H7N9-14B] | – | – | – | Reduced responses | –
YAEMKWLLSNTDNAAFPQ [H7N9-2] | 100% | – | – | – | –
